Data: patent publication US8853164B2, “Oligopeptide improving differentiation of osteoblasts” (Osstemimplant Co., Ltd., priority 2010, dated 2014)

Assays:
MG63 cells [1] = assay: Calcification ability assay (Alizarin red S staining); type: cell-based; settings: Day 14, Alizarin red S staining, relative to PEP111
Experimental: (§1) The effect of the oligopeptide disclosed herein on osteoblastic differentiation was examined by comparing ALP (alkaline phosphatase) activity as an initial differentiation marker of osteoblasts. In order to compare the differentiation ability of osteoblasts, MG63 cells were distributed to a 24-well plate at a concentration of 1×10^5 cells and incubated for 1 day. Then, the cell was treated with each of the PEP7 oligopeptide disclosed herein, and positive controls BMP-2 and PEP111 in a differentiation culture medium and incubated in a 37° C. CO2 incubator. The medium was replaced with a fresh one at 2-day intervals, the ALP activity was measured at Day 3 and 8 after the cultivation (FIG. 2).
In order to examine whether the oligopeptide disclosed herein can successfully induce osteogenic differentiation, extracellular matrix calcification was observed. The cultivation was carried out according to the same conditions as described above. At Day 14 and 21, the culture solution was harvested and subjected to Alizarin red S staining (FIG. 5).

MG63 cells [2] = assay: Late cell differentiation ability assay (osteocalcin production, human ELISA kit); type: cell-based; settings: culture solution at Day 14, relative to PEP111
Experimental: as §1
(§2) The effect of the PEP7 oligopeptide on osteoblastic differentiation was examined by comparing the production amount of osteocalcin and osteopontin as a late differentiation marker of osteoblasts. The cultivation was carried out according to the same conditions as described above. At Day 14, the culture solution was harvested, and the amount of osteocalcin and osteopontin therein was measured by using a human ELISA kit (FIGS. 3 and 4).

MG63 cells [3] = assay: Initial cell differentiation ability assay (ALP activity); type: cell-based; settings: differentiation culture medium, measured at Day 3 and 8, relative to PEP111
Experimental: as §1

MG63 cells [4] = assay: Late cell differentiation ability assay (osteopontin production, human ELISA kit); type: cell-based; settings: culture solution at Day 14, relative to PEP111
Experimental: as §1, §2

[5] = system: BMP-specific receptor (BMPR-IA or BMPR-II); assay: BMP specific binding assay (ELISA, absorbance at 595 nm); settings: PEP7 1 μg/well coated, BMPR-IA or BMPR-II 1 μg/well; relative to PEP111
Experimental: PEP7 (1 μg/well) was added to an ELISA plate and incubated at 4° C. for 12 hours. After PEP7 was coated on the plate, BMPR-IA or BMPR-II (1 μg/well) was added thereto and reacted at room temperature for 2 hours, to obtain a PEP7-BMP receptor complex. A primary antibody specific for a BMP receptor (0.5 μg BMR-IA, BMPR-II) was added to the complex and reacted at room temperature for 1 hour. A secondary antibody (BMPR-IA or BMPR-II-Fc Ab-HRP) was then added to the resulting mixture and reacted at room temperature for 1 hour. After ABTS was added to the resulting mixture and reacted at room temperature for 30 minutes, an absorbance of the resulting mixture was measure at 595 nm (FIG. 1, wherein PEP111(A) means the sequence whose 9th amino acid was alanine, PEP111(P) means the sequence whose alanine was replaced with proline, and PEP111(T) means the sequence whose alanine was replaced with threonine).

binding affinity to a BMP-specific receptor, higher than PEP111 [5]: about 23%
Sequence: KIPKPSSVPTELSAISMLYL (PEP7)
calcification ability, higher than PEP111 (MG63 cells [1]): about 19%
osteocalcin production, more than PEP111 (MG63 cells [2]): ≥ 14%
ALP (alkaline phosphatase) activity, higher than PEP111 (MG63 cells [3]): 20%
osteopontin production, more than PEP111 (MG63 cells [4]): ≥ 21%
